Legend:
KRas G12D [1] = target: T1, KRas G12D (Homo sapiens (Human), UniProt P01116, G12D); assay: KRas G12D Surface Plasmon Resonance (SPR) Binding Assay; conditions: Biacore T200, immobilized biotinylated KRAS protein, 1:1 binding model
Target sequence in this assay (P01116-2 other isoform, or with tags, fused parts or gaps G12D): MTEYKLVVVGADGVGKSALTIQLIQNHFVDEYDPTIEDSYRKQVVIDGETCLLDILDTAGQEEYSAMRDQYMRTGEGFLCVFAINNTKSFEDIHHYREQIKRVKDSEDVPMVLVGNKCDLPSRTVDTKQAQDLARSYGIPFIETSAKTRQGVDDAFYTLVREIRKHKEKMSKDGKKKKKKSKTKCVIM

KRas G12D [2] = target: T1, KRas G12D; assay: KRas G12D Binding Assay (TR-FRET displacement of Cy5 labelled tracer); conditions: GDP-loaded KRAS G12D (amino acids 1:169), 60 minute incubation at 22° C.
Experimental: After a 60 minute incubation at 22° C., the reaction was measured using a PerkinElmer EnVision multimode plate reader via TR-FRET dual wavelength detection, and the percent of control (POC) calculated using a ratiometric emission factor. […] The POC values were fit to a 4-parameter logistic curve and the IC50 value was determined as the concentration where the curve crosses 50 POC.
ND stands for “not determined.”
Target sequence in this assay (P01116 other isoform, or with tags, fused parts or gaps G12D): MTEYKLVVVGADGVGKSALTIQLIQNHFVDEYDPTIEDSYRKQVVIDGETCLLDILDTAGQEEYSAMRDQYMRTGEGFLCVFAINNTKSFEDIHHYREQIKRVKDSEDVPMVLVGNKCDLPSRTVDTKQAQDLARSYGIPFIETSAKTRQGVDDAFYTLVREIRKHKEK

SMILES	Kd (KRas G12D [1]) [µM]	IC50 (KRas G12D [2]) [µM]
COCCCOc1nc(N2C[C@H]3CC[C@@H](C2)N3)c2cnc(-c3cc(O)cc4ccccc34)c(F)c2n1 [Example 68, 4-(4-((1R,5S)-3,8-diazabicyclo[3.2.1]octan-3-yl)-8-fluoro-2-(3-methoxypropoxy)pyrido[4,3-d]pyrimidin-7-yl)naphthalen-2-ol]	0.293	0.257
OCCOc1nc(N2C[C@H]3CC[C@@H](C2)N3)c2cnc(-c3cc(O)cc4ccccc34)c(F)c2n1 [Example 69, 4-(4-((1R,5S)-3,8-diazabicyclo[3.2.1]octan-3-yl)-8-fluoro-2-(2-hydroxyethoxy)pyrido[4,3-d]pyrimidin-7-yl)naphthalen-2-ol]	0.522	0.53
COCCOc1nc(N2C[C@H]3CC[C@@H](C2)N3)c2cnc(-c3cc(O)cc4ccccc34)c(F)c2n1 [Example 70, 4-(4-((1R,5S)-3,8-diazabicyclo[3.2.1]octan-3-yl)-8-fluoro-2-(2-methoxyethoxy)pyrido[4,3-d]pyrimidin-7-yl)naphthalen-2-ol]	0.417	0.356
O=S1(=O)CCC(Oc2nc(N3C[C@H]4CC[C@@H](C3)N4)c3cnc(-c4cc(O)cc5ccccc45)c(F)c3n2)CC1 [Example 71, 4-((4-((1R,5S)-3,8-diazabicyclo[3.2.1]octan-3-yl)-8-fluoro-7-(3-hydroxynaphthalen-1-yl)pyrido[4,3-d]pyrimidin-2-yl)oxy)tetrahydro-2H-thiopyran 1,1-dioxide]	0.138	0.126
Oc1cc(-c2ncc3c(N4C[C@H]5CC[C@@H](C4)N5)nc(OC4CCOCC4)nc3c2F)c2ccccc2c1 [Example 72, 4-(4-((1R,5S)-3,8-diazabicyclo[3.2.1]octan-3-yl)-8-fluoro-2-((tetrahydro-2H-pyran-4-yl)oxy)pyrido[4,3-d]pyrimidin-7-yl)naphthalen-2-ol]	0.507	0.513
Oc1cc(-c2ncc3c(N4C[C@H]5CC[C@@H](C4)N5)nc(OCC4CCCC4)nc3c2F)c2ccccc2c1 [Example 73, 4-(4-((1R,5S)-3,8-diazabicyclo[3.2.1]octan-3-yl)-2-(cyclopentylmethoxy)-8-fluoropyrido[4,3-d]pyrimidin-7-yl)naphthalen-2-ol]	667	0.573
Oc1cc(-c2ncc3c(N4C[C@H]5CC[C@@H](C4)N5)nc(N4CC5(CCOCC5)C4)nc3c2F)c2ccccc2c1 [Example 74, 4-(4-((1R,5S)-3,8-diazabicyclo[3.2.1]octan-3-yl)-8-fluoro-2-(7-oxa-2-azaspiro[3.5]nonan-2-yl)pyrido[4,3-d]pyrimidin-7-yl)naphthalen-2-ol]	0.141	0.188
OCCCOc1nc(N2C[C@H]3CC[C@@H](C2)N3)c2cnc(-c3cc(O)cc4ccccc34)c(F)c2n1 [Example 75, 4-(4-((1R,5S)-3,8-diazabicyclo[3.2.1]octan-3-yl)-8-fluoro-2-(3-hydroxypropoxy)pyrido[4,3-d]pyrimidin-7-yl)naphthalen-2-ol]	0.304	0.24
Oc1cc(-c2ncc3c(N4C[C@H]5CC[C@@H](C4)N5)nc(N4CC5(CCOC5)C4)nc3c2F)c2ccccc2c1 [Example 76, 4-(4-((1R,5S)-3,8-diazabicyclo[3.2.1]octan-3-yl)-8-fluoro-2-(6-oxa-2-azaspiro[3.4]octan-2-yl)pyrido[4,3-d]pyrimidin-7-yl)naphthalen-2-ol]	0.197	0.131
OC[C@@H]1CCCN1c1nc(N2C[C@H]3CC[C@@H](C2)N3)c2cnc(-c3cc(O)cc4ccccc34)c(F)c2n1 [Example 77, 4-(4-((1R,5S)-3,8-diazabicyclo[3.2.1]octan-3-yl)-8-fluoro-2-((S)-2-(hydroxymethyl)pyrrolidin-1-yl)pyrido[4,3-d]pyrimidin-7-yl)naphthalen-2-ol]	3.07	3.14
CC(=O)N1CCC(Oc2nc(N3C[C@H]4CC[C@@H](C3)N4)c3cnc(-c4cc(O)cc5ccccc45)c(F)c3n2)CC1 [Example 78, 1-(4-((4-((1R,5S)-3,8-diazabicyclo[3.2.1]octan-3-yl)-8-fluoro-7-(3-hydroxynaphthalen-1-yl)pyrido[4,3-d]pyrimidin-2-yl)oxy)piperidin-1-yl)ethan-1-one]	0.367	0.358
Oc1cc(-c2ncc3c(N4C[C@H]5CC[C@@H](C4)N5)nc(OC4CCSCC4)nc3c2F)c2ccccc2c1 [Example 79, 4-(4-((1R,5S)-3,8-diazabicyclo[3.2.1]octan-3-yl)-8-fluoro-2-((tetrahydro-2H-thiopyran-4-yl)oxy)pyrido[4,3-d]pyrimidin-7-yl)naphthalen-2-ol]	> 1000	0.337
Oc1cc(-c2ncc3c(N4C[C@H]5CC[C@@H](C4)N5)nc(OC4CCC(F)(F)CC4)nc3c2F)c2ccccc2c1 [Example 80, 4-(4-((1R,5S)-3,8-diazabicyclo[3.2.1]octan-3-yl)-2-((4,4-difluorocyclohexyl)oxy)-8-fluoropyrido[4,3-d]pyrimidin-7-yl)naphthalen-2-ol]	> 500	0.647
Oc1cc(-c2ncc3c(N4C[C@H]5CC[C@@H](C4)N5)nc(OCCC(F)(F)F)nc3c2F)c2ccccc2c1 [Example 81, 4-(4-((1R,5S)-3,8-diazabicyclo[3.2.1]octan-3-yl)-8-fluoro-2-(3,3,3-trifluoropropoxy)pyrido[4,3-d]pyrimidin-7-yl)naphthalen-2-ol]	0.321	0.153
[O-][S+]1CCC(Oc2nc(N3C[C@H]4CC[C@@H](C3)N4)c3cnc(-c4cc(O)cc5ccccc45)c(F)c3n2)CC1 (stereo partly drawn) [Example 82, 4-((4-((1R,5S)-3,8-diazabicyclo[3.2.1]octan-3-yl)-8-fluoro-7-(3-hydroxynaphthalen-1-yl)pyrido[4,3-d]pyrimidin-2-yl)oxy)tetrahydro-2H-thiopyran 1-oxide]	0.215	0.227
Cc1nccn1CCOc1nc(N2CC3CCC(C2)N3)c2cnc(-c3cc(O)cc4ccccc34)c(F)c2n1 [Example 84, 4-(4-((1R,5S)-3,8-diazabicyclo[3.2.1]octan-3-yl)-8-fluoro-2-(2-(2-methyl-1H-imidazol-1-yl)ethoxy)pyrido[4,3-d]pyrimidin-7-yl)naphthalen-2-ol]	0.0144	0.0317
CC(C)Cn1ccnc1CCOc1nc(N2C[C@H]3CC[C@@H](C2)N3)c2cnc(-c3cc(O)cc4ccccc34)c(F)c2n1 [Example 85, 4-(4-((1R,5S)-3,8-diazabicyclo[3.2.1]octan-3-yl)-8-fluoro-2-(2-(1-isobutyl-1H-imidazol-2-yl)ethoxy)pyrido[4,3-d]pyrimidin-7-yl)naphthalen-2-ol]	0.148	0.454
COc1ccc(CCOc2nc(N3C[C@H]4CC[C@@H](C3)N4)c3cnc(-c4cccc5cccc(Cl)c45)c(F)c3n2)cn1 [Example 86, 4-((1R,5S)-3,8-diazabicyclo[3.2.1]octan-3-yl)-7-(8-chloronaphthalen-1-yl)-8-fluoro-2-(2-(6-methoxypyridin-3-yl)ethoxy)pyrido[4,3-d]pyrimidine]	528	7.92
Cc1cccc(CCOc2nc(N3C[C@H]4CC[C@@H](C3)N4)c3cnc(-c4cc(O)cc5ccccc45)c(F)c3n2)n1 [Example 87, 4-(4-((1R,5S)-3,8-diazabicyclo[3.2.1]octan-3-yl)-8-fluoro-2-(2-(6-methylpyridin-2-yl)ethoxy)pyrido[4,3-d]pyrimidin-7-yl)naphthalen-2-ol]	0.196	0.536
Cc1ccc2[nH]ncc2c1-c1ncc2c(N3C[C@H]4CC[C@@H](C3)N4)nc(OCCc3nccn3C)nc2c1F [Example 88, 4-((1R,5S)-3,8-diazabicyclo[3.2.1]octan-3-yl)-8-fluoro-2-(2-(1-methyl-1H-imidazol-2-yl)ethoxy)-7-(5-methyl-1H-indazol-4-yl)pyrido[4,3-d]pyrimidine]	15.6	7.02
Oc1cc(-c2ncc3c(N4C[C@H]5CC[C@@H](C4)N5)nc(OCc4ccccn4)nc3c2F)c2ccccc2c1 [Example 89, 4-(4-((1R,5S)-3,8-diazabicyclo[3.2.1]octan-3-yl)-8-fluoro-2-(pyridin-2-ylmethoxy)pyrido[4,3-d]pyrimidin-7-yl)naphthalen-2-ol]	4.31	0.679
Fc1ccc2cccc(-c3ncc4c(N5C[C@H]6CC[C@@H](C5)N6)nc(OCCc5cccnc5)nc4c3F)c2c1 [Example 90, 4-((1R,5S)-3,8-diazabicyclo[3.2.1]octan-3-yl)-8-fluoro-7-(7-fluoronaphthalen-1-yl)-2-(2-(pyridin-3-yl)ethoxy)pyrido[4,3-d]pyrimidine]	7.81	4.49
CC(C)n1ccnc1CCOc1nc(N2C[C@H]3CC[C@@H](C2)N3)c2cnc(-c3cc(O)cc4ccccc34)c(F)c2n1 [Example 91, 4-(4-((1R,5S)-3,8-diazabicyclo[3.2.1]octan-3-yl)-8-fluoro-2-(2-(1-isopropyl-1H-imidazol-2-yl)ethoxy)pyrido[4,3-d]pyrimidin-7-yl)naphthalen-2-ol]	0.0259	0.0327
Fc1c(-c2cccc3cccc(Cl)c23)ncc2c(N3C[C@H]4CC[C@@H](C3)N4)nc(OCCc3cn4ccccc4n3)nc12 [Example 92, 4-((1R,5S)-3,8-diazabicyclo[3.2.1]octan-3-yl)-7-(8-chloronaphthalen-1-yl)-8-fluoro-2-(2-(imidazo[1,2-a]pyridin-2-yl)ethoxy)pyrido[4,3-d]pyrimidine]	2.3	1.35
Cn1ccnc1CCOc1nc(N2C[C@H]3CC[C@@H](C2)N3)c2cnc(-c3cccc4ccccc34)c(F)c2n1 [Example 94, 4-((1R,5S)-3,8-diazabicyclo[3.2.1]octan-3-yl)-8-fluoro-2-(2-(1-methyl-1H-imidazol-2-yl)ethoxy)-7-(naphthalen-1-yl)pyrido[4,3-d]pyrimidine]	7.46	3.65
